Key:
[1] = Average hydrodynamic diameter of peptidesomes by DLS at different temperatures; format: physicochemical; details: distilled water, 20-40° C.
Description: The size of self-assembled nanoparticles (SNPs) was analyzed by a dynamic light scattering size distributor (particle size & zeta potential analyzer, ELS-1000ZS, Otsuka Electronics, Japan) using a UV-transparent cuvette having a path length of 1 cm. The secondary structure of the cyclic peptides of SPNs was analyzed using a Chirascan circular dichroism spectrometer equipped with a Peltier temperature controller (Applied Photophysics, UK). The CD (circular dichroism) spectra of samples were analyzed in a range of 190-260 nm using a cuvette having a path length of 2 mm. The molar residue ellipticity of the samples was calculated per amino acid residue. All mouse experiments were conducted under an animal protocol approved by the Catholic University of Korea on Laboratory Animal Care (2020-0359-05).
It was confirmed from the foregoing experiment that the cyclic peptides prepared in Examples 2-1 to 2-3 form vesicular self-assembled structure when stored in distilled water (DW). The average hydrodynamic diameter (Dn) of the self-assembled structures was measured by dynamic light scattering (DLS) at different temperatures (20° C., 30° C., 40° C.).

SCC7 cells [2] = assay: Photodynamic killing of cancer cells, MTT assay after laser irradiation; format: cell-based; details: 24 hours, IR laser 671 nm 1.59 J/cm^2, peptidesome in DW
Description: SSC7 (squamous cell carcinoma 7) cells were treated with free Pa or the coassembled peptidesome of Example 4-6d (R6:RGD2<-Pa) (1:9) at 30 μM for 24 hours, followed by infrared (IR) laser (671 nm) irradiation at 1.59 J/cm^2. Cytotoxicity as a measure of the photodynamic killing of the cancer cells was determined by MTT assay.
As the samples, 2 μg/mL of free Pa, 2 μg/mL of the coassembled peptidesome of Example 4-6d (R6:RGD2<-Pa) (1:9) (G&G) and 2 μg/mL of the coassembled peptidesome of Example 4-6d (R6:RGD2<-Pa) (1:9) (DW) were used. DW means that distilled water was used instead of the G&G solution.

SCC7 cells [3] = assay: Cellular uptake by CLSM and flow cytometry (FACS); format: cell-based; details: 2 μg/mL, 4 hours
Description: Analysis of intracellular delivery efficiency and FACS in vitro Cellular uptake of materials in SCC7 cells was analyzed based on the intrinsic fluorescence of Pa via CLSM (LSM700, Carl Zeiss, Germany) and flow cytometry (FACS Canto II, BD Biosciences, Bedford, MA, USA). SCC7 cells were seeded onto a 24-well plate at a density of 5×10^4 and incubated overnight. Then, […] of a sample was added to […] of a culture medium for each well. The cells were treated with the sample for 4 hours. Then, the sample was removed and the cells were washed. For cell imaging, cell nuclei were stained with Hoechst 33342.
SCC7 cells were seeded in a 24-well plate at a density of 5×10^4 and incubated overnight. Then, […] of the sample was added to […] of a culture medium. The cells were treated with the sample for 4 hours, followed by removal of the sample and washing. For cell imaging, the cell nuclei were stained with Hoechst 33342. The uptake of materials by the SCC7 cells was analyzed based on the intrinsic fluorescence of Pa via CLSM (LSM700, Carl Zeiss, Germany) and flow cytometry (FACS Canto II, BD Biosciences, Bedford, MA, USA).
As the samples, 2 μg/mL of free Pa, 2 μg/mL of the coassembled peptidesome of Example 4-6d (R6:RGD2<-Pa) (1:9) (G&G) and 2 μg/mL of the coassembled peptidesome of Example 4-6d (R6:RGD2<-Pa) (1:9) (DW) were used. […]

SCC7 cell-derived cancer = assay: In-vivo antitumor efficacy (PDT) in xenograft mouse model; details: after 14 days
Description: SCC7 tumor-bearing mouse models were prepared similarly to the biodistribution analysis. When the tumor volume reached approximately 50 mm^3, the sample was intravenously injected into the xenograft mice. 3 hours after the sample injection, NIR laser (671 nm) was irradiated to the tumor site with a power of 0.53 W/cm^2 for 15 minutes, and the same sample injection and NIR irradiation were repeated on the next day. The tumor volume and body weight were recorded every two days. At the end of the therapy, major organs and tumors were dissected for histological analysis. […]
Squamous cell carcinoma 7 (SSC7) cells were cultured in an RPMI 1640 medium containing 10% FBS, 1% L-glutamine, 1% penicillin, streptomycin, etc. in a 37° C. incubator maintained at 5% carbon dioxide. The cultured cells were detached from the bottom of the flask using trypsin/EDTA and cell viability was evaluated by trypan blue exclusion assay. […]
After the injection of the sample to each group, tumor volume and body weight were recorded 2 days, 4 days, 6 days, 8 days, 10 days, 12 days and 14 days later. […] The organs and cancer tissues were fixed, prepared into cryosections, stained with hematoxylin and eosin (H&E) and observed with a fluorescence microscope (Axiolmager A1, Zeiss, Germany).

[4] = cited from earlier work

Compound	average diameter of peptidesome (DLS) [1]	PDT effect (cell viability after laser irradiation) (SCC7 cells [2])	cell internalization efficiency of free Pa relative to the coassembled peptidesome (SCC7 cells [3]) [fold]	weight of the excised tumor (SCC7 cell-derived cancer; 2 mg/kg, tail vein, NIR laser)	excised tumor weight of free Pa group relative to peptidesome<-Pa(G&G) group (SCC7 cell-derived cancer)	water solubility [4] [µg/mL]
CCCCCCCCCCCC(=O)N[C@H]1CCCCNC(=O)[C@H](Cc2c[nH]c3ccccc23)NC(=O)CCC(=O)NCCOCCOCCNC(=O)[C@H](CCCNC(=N)N)NC(=O)[C@H](CCCNC(=N)N)NC(=O)CCC(=O)NCCOCCOCCNC(=O)[C@H](Cc2c[nH]c3ccccc23)NC1=O [Example 2-1]	99-127 nm					
pheophorbide a [free Pa]		dose-dependent PDT effect	5	1,222 mg	approximately 3 times	14

Reference: patent US20230414759A1, “NOVEL CYCLIC PEPTIDES BASED ON NANOBIOSTRUCTURAL CONTROL, PEPTIDESOMES WITH CORE/SHELL STRUCTURE COMPRISING SAME, AND USES THEREOF” (UIF (University Industry Fpimdatopm), Yonsei University, priority 2022, published 2023)
